Assay results as given in patent US20240009276A1, “S[…] OF IMMUNITY AGAINST RNA VIRUSES” (Health Research, Inc., priority 2020, published 2024).

Legend:
[1] = system: SARS-CoV; details: mouse, in vivo; cited from earlier work
[2] = system: Human epithelial cells (SW620); type: cell-based; parameters: key to synergy of combination with Poly-IC / synergy of combination with rintatolimod / synergy of combination with TNFα: Yes*: *Direct support by current data (Rintatolimod and poly-IC share binding to TLR3 but not other immunostimulatory properties/recognition receptors/signaling pathways^3)
[3] = cited from earlier work
[4] = system: human coronavirus OC43; details: human coronavirus OC43, BS-C-1 kidney cells; cited from earlier work

| Substance | antiviral/survival effect [1] | synergy of combination with Poly-IC [2] | synergy of combination with TNFα [2] | synergy of combination with rintatolimod [2] | induction of genes involved in SARS-Cov elimination (OAS2, Ifit-1, Mx1, RIG-I, MDA5, TLR3, other ISGs) [2] | easily achievable concentration in humans [3] | EC50 [4] |
| --- | --- | --- | --- | --- | --- | --- | --- |
| IFNα | significant antiviral/survival effect | Yes* | Yes* | Yes* | – | – | – |
| IFNγ | – | Yes* | Yes* | Yes* | – | – | – |
| polyinosinic:polycytidylic acid [poly-I:C, reference compound] | – | – | – | – | synergistic effects | – | – |
| rintatolimod [reference compound] | significant antiviral/survival effect | – | – | – | synergistic effects | 40 µg/mL | 0.4 mg/L |
